Measured values from patent US20100092562A1, “SUSTAINED-RELEASE DRUG DELIVERY COMPOSITIONS AND METHODS” (priority 2002, published 2010).
Counter-ions that a name gives are not always drawn. Like-named read-outs stand apart in the source and are kept apart here.

What was measured:
[1] = cited from earlier work
[2] = Release profile of base vs salt forms of drugs in liquid controlled release compositions, USP Apparatus 2; format: physicochemical; conditions: liquid sustained release compositions, 65% W/W sucrose; stored 3 weeks at room temperature
[3] = Effect of sucrose concentration in dispersion medium on albuterol release, USP Apparatus 2; format: physicochemical; conditions: alginate beads, 20% coating; stored 1 week at room temperature
Description: The experiment was carried out with 16 mg of albuterol bound to the alginic acid resin, with 20% coating, and 40%, 50%, 60% or 65% W/W of sucrose in the dispersion medium. First, the alginate beads were loaded with the drug albuterol, where 5% of albuterol and 5% of alginic acid were used. Albuterol and alginic acid powders were placed in a beaker, 100 ml of water was added, and the mixture was stirred until a homogenous gel was formed. Then, 70% microcrystalline cellulose and 20% lactose were placed into a bowl of a low shear mixer and pre-blended with a spatula. Then, the albuterol-alginate gel was incrementally added to the microcrystalline cellulose and lactose blend and mixed to produce a wet mass. Additional 50 ml of water was added to the beaker to wash down its sides and added to the wet mass during its blending, and the resulting wet mass was transferred into a polyethylene bag. Then, the resulting wet mass material was extruded using a dome screen attachment with 0.8 mm screen size at 55 rpm, with the wet mass being gradually added into the extruder. Subsequently, the extrudate was spheronized at 750 rpm for approximately 30 sec, and then dried overnight in a convection oven at 45° C. The beads of appropriate size (material that passed through 16 mesh screens and retained on 20 mesh screens) were selected. […]

[4] = sodium alginate 0.877 g/L, 25° C.
Description: The studies were performed with a two compartment plexiglass dialysis cell (Hollenbeck laboratory) and having a cellulose membrane (molecular weight cutoff of 6000 Daltons) Bel-Art Products (Pequannock, N.J.) placed between the two cell compartments. […] The dialysis cell was shaken at 80 RPM in a thermostatic water bath at 25° C. until equilibrium was reached (30 h). The solution was removed from the drug compartment and the concentrations of free drug and polymer-bound drug measured by high performance liquid chromatography (“HPLC”).

[5] = single IR oral dose of 10 mg HC, 5 male human subjects
[6] = total drug concentration 4.97 (M × 10^4)
[7] = total drug concentration 5.47 (M × 10^4)
[8] = total drug concentration 5.96 (M × 10^4)
[9] = total drug concentration 6.96 (M × 10^4)
[10] = total drug concentration 7.95 (M × 10^4)
[11] = total drug concentration 8.95 (M × 10^4)
[12] = total drug concentration 9.94 (M × 10^4)
[13] = total drug concentration 14.91 (M × 10^4)
[14] = total drug concentration 19.88 (M × 10^4)
[15] = total drug concentration 24.86 (M × 10^4)
[16] = total drug concentration 30.40 (M × 10^4)
[17] = total drug concentration 41.20 (M × 10^4)
[18] = total drug concentration 50.70 (M × 10^4)

COc1ccc2c3c1O[C@H]1C(=O)CC[C@H]4[C@@H](C2)N(C)CC[C@]314 (relative stereo) [hydrocodone, morphinan-6-one, 4,5-epoxy-3-methoxy-17-methyl-,(5)-, [R—(R*,R*)]-2,3-dihydroxybutane-dioate (1:1), hydrate (2:5)]
elimination half-life of the parent-compound ([1]; in vivo): 3.8 to 4.5 h | Tmax [1, 5]: approximately 1.3±0.3 hours | mean peak serum concentration [1, 5]: 23.6 ± 5.2 ng/mL | total excretion occurring in the first 24 hours ([1]; single oral dose): About 70%

CN[C@@H](C)[C@@H](O)c1ccccc1 (relative stereo) [pseudoephedrine, benzenemethanol, -[1-(methylamino)ethyl]-, [S—(R*,R*)]-, hydrochloride]
half-life ([1]; affected by urinary pH): 9 to 16 h | dose excreted unchanged in the urine within 24 hours of dosing ([1]; in vivo): up to 90% | Tmax following administration ([1]; previously published studies): 1.5 to 2.4 h | rate of release of salt forms vs base forms [2]: comparable

CC(C)(C)NCC(O)c1ccc(O)c(CO)c1 (stereo not shown) [albuterol]
release from beads suspended in 50%, 60% and 65% W/W of sucrose vs 40% W/W of sucrose [3]: slower

CN(C)CCC(c1ccc(Cl)cc1)c1ccccn1 (stereo not shown) [chlorpheniramine, 2-pyridinepropanamine, -(4-chlorophenyl)-N,N-dimethyl-, (Z)-2-butenedioate (1:1)]
excreted in the feces ([1]; in vivo): Less than 1% | excreted in the urine (metabolism to monodesmethyl and didesmethyl compounds) ([1]; in vivo): up to 26% | renal elimination, share of total excretion ([1]; in vivo): approximately 50% | rate of release of salt forms vs base forms [2]: comparable

CC(C)NCC(O)COc1cccc2ccccc12.Cl (stereo not shown) [propranolol, propranolol hydrochloride]
(l/g), r/(Df) [4, 6]: 4.88 L/g | Amount bound per gram of polymer [4, 6]: 4.59 M × 10^4 | Bound drug concentration [4, 6]: 4.03 M × 10^4 | Free drug concentration [4, 6]: 0.94 M × 10^4 | (l/g), r/(Df) [4, 7]: 3.97 L/g | Amount bound per gram of polymer [4, 7]: 4.84 M × 10^4 | Bound drug concentration [4, 7]: 4.25 M × 10^4 | Free drug concentration [4, 7]: 1.22 M × 10^4 | (l/g), r/(Df) [4, 8]: 3.60 L/g | Amount bound per gram of polymer [4, 8]: 5.16 M × 10^4 | Bound drug concentration [4, 8]: 4.53 M × 10^4 | Free drug concentration [4, 8]: 1.43 M × 10^4 | (l/g), r/(Df) [4, 9]: 3.21 L/g | Amount bound per gram of polymer [4, 9]: 5.86 M × 10^4 | Bound drug concentration [4, 9]: 5.14 M × 10^4 | Free drug concentration [4, 9]: 1.82 M × 10^4 | (l/g), r/(Df) [4, 10]: 2.49 L/g | Amount bound per gram of polymer [4, 10]: 6.23 M × 10^4 | Bound drug concentration [4, 10]: 5.46 M × 10^4 | Free drug concentration [4, 10]: 2.49 M × 10^4 | (l/g), r/(Df) [4, 11]: 1.71 L/g | Amount bound per gram of polymer [4, 11]: 6.12 M × 10^4 | Bound drug concentration [4, 11]: 5.37 M × 10^4 | Free drug concentration [4, 11]: 3.57 M × 10^4 | (l/g), r/(Df) [4, 12]: 1.62 L/g | Amount bound per gram of polymer [4, 12]: 6.66 M × 10^4 | Bound drug concentration [4, 12]: 5.83 M × 10^4 | Free drug concentration [4, 12]: 4.10 M × 10^4 | (l/g), r/(Df) [4, 13]: 1.17 L/g | Amount bound per gram of polymer [4, 13]: 8.61 M × 10^4 | Free drug concentration [4, 13]: 7.36 M × 10^4 | (l/g), r/(Df) [4, 14]: 0.87 L/g | Amount bound per gram of polymer [4, 14]: 9.81 M × 10^4 | Bound drug concentration [4, 14]: 8.60 M × 10^4 | Free drug concentration [4, 14]: 11.28 M × 10^4 | (l/g), r/(Df) [4, 15]: 0.60 L/g | Amount bound per gram of polymer [4, 15]: 10.73 M × 10^4 | Bound drug concentration [4, 15]: 9.41 M × 10^4 | Free drug concentration [4, 15]: 15.45 M × 10^4 | (l/g), r/(Df) [4, 16]: 0.57 L/g | Amount bound per gram of polymer [4, 16]: 11.49 M × 10^4 | Bound drug concentration [4, 16]: 10.08 M × 10^4 | Free drug concentration [4, 16]: 20.32 M × 10^4 | (l/g), r/(Df) [4, 17]: 0.41 L/g | Amount bound per gram of polymer [4, 17]: 12.37 M × 10^4 | Bound drug concentration [4, 17]: 10.84 M × 10^4 | Free drug concentration [4, 17]: 30.35 M × 10^4 | (l/g), r/(Df) [4, 18]: 0.33 L/g | Amount bound per gram of polymer [4, 18]: 12.93 M × 10^4 | Bound drug concentration [4, 18]: 11.34 M × 10^4 | Free drug concentration [4, 18]: 39.36 M × 10^4
